Reference: patent US20230265116A1, “DEGRADATION OF (EGFR) BY CONJUGATION OF EGFR INHIBITORS WITH E3 LIGASE LIGAND AND METHODS OF USE” (BEIGENE, LTD., priority 2020, published 2023)

How the values were obtained:
[1] = target: T1, EGFR L858R/T790M/C797S (BaF3-LTC cells) (Homo sapiens, UniProt P00533, C797S/L858R/T790M); test: EGFR degradation HTRF assay, BaF3-LTC cells; assay type: cell-based; details: BaF3-LTC, 16h treatment; for Dmax: maximum percentage of degradation, read-out: LTC Dmax (%); for DC50: read-out: LTC DC50
T1 construct: expressed in transfected cells; host or cells: BaF3
T1 sequence (P00533 25-1210 T790M/C797S/L858R): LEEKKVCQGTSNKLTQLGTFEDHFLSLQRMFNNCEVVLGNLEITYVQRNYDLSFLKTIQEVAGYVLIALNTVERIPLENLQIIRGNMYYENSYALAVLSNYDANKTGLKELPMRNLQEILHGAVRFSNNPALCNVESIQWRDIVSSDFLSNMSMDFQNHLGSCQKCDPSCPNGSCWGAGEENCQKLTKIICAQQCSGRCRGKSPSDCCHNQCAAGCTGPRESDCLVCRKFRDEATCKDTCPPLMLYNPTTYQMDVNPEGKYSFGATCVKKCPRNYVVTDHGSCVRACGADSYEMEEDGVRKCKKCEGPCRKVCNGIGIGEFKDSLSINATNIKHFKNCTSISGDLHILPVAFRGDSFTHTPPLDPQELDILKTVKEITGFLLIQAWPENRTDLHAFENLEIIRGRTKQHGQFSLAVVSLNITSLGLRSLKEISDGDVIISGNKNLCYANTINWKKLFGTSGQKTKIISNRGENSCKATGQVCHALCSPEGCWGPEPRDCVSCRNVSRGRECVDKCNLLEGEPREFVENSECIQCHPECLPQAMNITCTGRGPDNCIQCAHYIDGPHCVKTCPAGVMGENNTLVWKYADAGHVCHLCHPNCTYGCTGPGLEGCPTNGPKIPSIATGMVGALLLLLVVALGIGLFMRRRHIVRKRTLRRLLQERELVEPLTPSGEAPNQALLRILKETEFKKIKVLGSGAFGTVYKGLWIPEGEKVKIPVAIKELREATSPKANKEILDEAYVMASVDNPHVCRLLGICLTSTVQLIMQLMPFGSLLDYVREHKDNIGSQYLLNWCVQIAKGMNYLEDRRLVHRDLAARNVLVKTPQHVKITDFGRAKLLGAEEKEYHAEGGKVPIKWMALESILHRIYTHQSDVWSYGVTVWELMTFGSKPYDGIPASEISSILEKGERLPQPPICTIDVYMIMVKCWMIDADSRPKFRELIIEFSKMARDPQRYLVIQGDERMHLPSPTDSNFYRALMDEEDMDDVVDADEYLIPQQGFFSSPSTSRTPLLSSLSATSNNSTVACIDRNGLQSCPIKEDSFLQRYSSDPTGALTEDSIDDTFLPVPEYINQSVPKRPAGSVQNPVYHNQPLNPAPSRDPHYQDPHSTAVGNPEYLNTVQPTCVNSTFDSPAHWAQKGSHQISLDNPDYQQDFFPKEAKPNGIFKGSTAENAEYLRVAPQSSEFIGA
Summary of the method: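 Cells treated 16 h at 37 °C, 5% CO2 in medium with 0.2% DMSO; top final concentration 10 uM, 5-fold dilution, 8 doses. Lysates read by HTRF (665/620 nm); degradation % versus DMSO high control, DC50 from four-parameter fit, Dmax as maximal degradation.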

[2] = test system: EGFR Del19/T790M/C797S (BaF3-DTC cells); test: EGFR degradation HTRF assay, BaF3-DTC cells; assay type: cell-based; details: 16h treatment; for DTC Dmax (%): maximum percentage of degradation; for DC50: read-out: DTC DC50
Summary of the method: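 EGFR remaining after a 16 h, 37 °C exposure (8 doses, 5-fold steps from 10 uM final, 0.2% DMSO) was quantified by HTRF antibodies in cell lysate. Percent inhibition relative to DMSO control was fitted by four-parameter logistic to give DC50; Dmax denotes maximal degradation.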

| Dmax [1] [%] | DC50 [1] [nM] | DC50 [2] [nM] | SMILES | DTC Dmax (%) [2] [%] |
| --- | --- | --- | --- | --- |
| 83.8 | 17 | 6.02 | CCc1cc(Nc2ncc(Br)c(Nc3ccc4nccnc4c3P(C)(C)=O)n2)c(OC)cc1N1CCC(N2CCN(C3CN(c4cc(F)c(C5CCC(=O)NC5=O)c(F)c4)C3)CC2)CC1 (stereo not drawn) [Example 302, 3-(4-(3-(4-(1-(4-((5-bromo-4-((5-(dimethylphosphoryl)quinoxalin-6-yl)amino)pyrimidin-2-yl)amino)-2-ethyl-5-methoxyphenyl)piperidin-4-yl)piperazin-1-yl)azetidin-1-yl)-2,6-difluorophenyl)piperidine-2,6-dione] | 88.36 |
| 86.7 | 41.2 | 10.6 | CCc1cc(Nc2ncc(Br)c(Nc3ccc4nccnc4c3P(C)(C)=O)n2)c(OC)cc1N1CCC(N2CCN(CC3CCN(c4cc(F)c(C5CCC(=O)NC5=O)c(F)c4)CC3)CC2)CC1 (stereo not drawn) [Example 303, 3-(4-(4-((4-(1-(4-((5-bromo-4-((5-(dimethylphosphoryl)quinoxalin-6-yl)amino)pyrimidin-2-yl)amino)-2-ethyl-5-methoxyphenyl)piperidin-4-yl)piperazin-1-yl)methyl)piperidin-1-yl)-2,6-difluorophenyl)piperidine-2,6-dione] | 90.93 |
| 85.8 | 17.1 | 9.57 | CCc1cc(Nc2ncc(Br)c(Nc3ccc4nccnc4c3P(C)(C)=O)n2)c(OC)cc1N1CCC(N2CCN(C(=O)C3CN(c4ccc(C5CCC(=O)NC5=O)c(C#N)c4)C3)CC2)CC1 (stereo not drawn) [Example 306, 5-(3-(4-(1-(4-((5-bromo-4-((5-(dimethylphosphoryl)quinoxalin-6-yl)amino)pyrimidin-2-yl)amino)-2-ethyl-5-methoxyphenyl)piperidin-4-yl)piperazine-1-carbonyl)azetidin-1-yl)-2-(2,6-dioxopiperidin-3-yl)benzonitrile] | 73.14 |
| 87.4 | 77.1 | 43.3 | CCc1cc(Nc2ncc(Br)c(Nc3ccc4nccnc4c3P(C)(C)=O)n2)c(OC)cc1N1CCC(N2CCN(C[C@H]3C[C@H](N(C)c4cccc(C5CCC(=O)NC5=O)c4)C3)CC2)CC1 (stereo partly drawn) [Example 307, 3-(3-(((1r,3r)-3-((4-(1-(4-((5-bromo-4-((5-(dimethylphosphoryl)quinoxalin-6-yl)amino)pyrimidin-2-yl)amino)-2-ethyl-5-methoxyphenyl)piperidin-4-yl)piperazin-1-yl)methyl)cyclobutyl)(methyl)amino)phenyl)piperidine-2,6-dione] | 73.68 |
| 91.8 | 15.6 | 5.01 | CCc1cc(Nc2ncc(Br)c(Nc3ccc4nccnc4c3P(C)(C)=O)n2)c(OC)cc1N1CCC(N2CCN(C(=O)C3CCN(c4ccc5nn(C6CCC(=O)NC6=O)cc5c4)CC3)CC2)CC1 (stereo not drawn) [Example 308, 3-(5-(4-(4-(1-(4-((5-bromo-4-((5-(dimethylphosphoryl)quinoxalin-6-yl)amino)pyrimidin-2-yl)amino)-2-ethyl-5-methoxyphenyl)piperidin-4-yl)piperazine-1-carbonyl)piperidin-1-yl)-2H-indazol-2-yl)piperidine-2,6-dione] | 93.79 |
| 87.2 | 32.1 | 5.89 | CCc1cc(Nc2ncc(Br)c(Nc3ccc4nccnc4c3P(C)(C)=O)n2)c(OC)cc1N1CCC(N2CCN(CCc3ccc4nn(C5CCC(=O)NC5=O)cc4c3)CC2)CC1 (stereo not drawn) [Example 309, 3-(5-(2-(4-(1-(4-((5-bromo-4-((5-(dimethylphosphoryl)quinoxalin-6-yl)amino)pyrimidin-2-yl)amino)-2-ethyl-5-methoxyphenyl)piperidin-4-yl)piperazin-1-yl)ethyl)-2H-indazol-2-yl)piperidine-2,6-dione] | 92.99 |
| 76.3 | 78.2 | 31.8 | CCc1cc(Nc2ncc(Br)c(Nc3ccc4nccnc4c3P(C)(C)=O)n2)c(OC)cc1N1CCC(N2CCN(C3CC4(CCN(c5ccc(C6CCC(=O)NC6=O)cc5)CC4)C3)CC2)CC1 (stereo not drawn) [Example 311, 3-(4-(2-(4-(1-(4-((5-bromo-4-((5-(dimethylphosphoryl)quinoxalin-6-yl)amino)pyrimidin-2-yl)amino)-2-ethyl-5-methoxyphenyl)piperidin-4-yl)piperazin-1-yl)-7-azaspiro[3.5]nonan-7-yl)phenyl)piperidine-2,6-dione] | 77.19 |
| 86.1 | 16.1 | 8.17 | CCc1cc(Nc2ncc(Br)c(Nc3ccc4nc(C)ccc4c3P(C)(C)=O)n2)c(OC)cc1N1CCC(N2CCN(CCC3CCN(c4cc(F)c(C5CCC(=O)NC5=O)c(F)c4)CC3)CC2)CC1 (stereo not drawn) [Example 312, 3-(4-(4-(2-(4-(1-(4-((5-bromo-4-((5-(dimethylphosphoryl)-2-methylquinolin-6-yl)amino)pyrimidin-2-yl)amino)-2-ethyl-5-methoxyphenyl)piperidin-4-yl)piperazin-1-yl)ethyl)piperidin-1-yl)-2,6-difluorophenyl)piperidine-2,6-dione] | 88.59 |
| 87.5 | 53.7 | 28.6 | CCc1cc(Nc2ncc(Br)c(Nc3ccc4nc(C(C)C)ccc4c3P(C)(C)=O)n2)c(OC)cc1N1CCC(N2CCN(CCC3CCN(c4cc(F)c(C5CCC(=O)NC5=O)c(F)c4)CC3)CC2)CC1 (stereo not drawn) [Example 313, 3-(4-(4-(2-(4-(1-(4-((5-bromo-4-((5-(dimethylphosphoryl)-2-isopropylquinolin-6-yl)amino)pyrimidin-2-yl)amino)-2-ethyl-5-methoxyphenyl)piperidin-4-yl)piperazin-1-yl)ethyl)piperidin-1-yl)-2,6-difluorophenyl)piperidine-2,6-dione] | 90.8 |
| 87.8 | 6.5 | 2.48 | CCc1cc(Nc2ncc(Br)c(Nc3ccc4nc(C)ccc4c3P(C)(C)=O)n2)c(OC)cc1N1CCC(N2CCN(CCc3cc(F)c(C4CCC(=O)NC4=O)c(F)c3)CC2)CC1 (stereo not drawn) [Example 314, 3-(4-(2-(4-(1-(4-((5-bromo-4-((5-(dimethylphosphoryl)-2-methylquinolin-6-yl)amino)pyrimidin-2-yl)amino)-2-ethyl-5-methoxyphenyl)piperidin-4-yl)piperazin-1-yl)ethyl)-2,6-difluorophenyl)piperidine-2,6-dione] | 91.87 |
| 82 | 12.9 | 4.27 | CCc1cc(Nc2ncc(Br)c(Nc3ccc4nccnc4c3P(C)(C)=O)n2)c(OC)cc1N1CCC(N2CCN(C(=O)C3CN(c4ccc5nn(C6CCC(=O)NC6=O)cc5c4)C3)CC2)CC1 (stereo not drawn) [Example 315, 3-(5-(3-(4-(1-(4-((5-bromo-4-((5-(dimethylphosphoryl)quinoxalin-6-yl)amino)pyrimidin-2-yl)amino)-2-ethyl-5-methoxyphenyl)piperidin-4-yl)piperazine-1-carbonyl)azetidin-1-yl)-2H-indazol-2-yl)piperidine-2,6-dione] | 89.47 |
| 79 | 48.7 | 9.59 | CCc1cc(Nc2ncc(Br)c(Nc3ccc4nc(C(C)C)ccc4c3P(C)(C)=O)n2)c(OC)cc1N1CCC(N2CCN(CCc3cc(F)c(C4CCC(=O)NC4=O)c(F)c3)CC2)CC1 (stereo not drawn) [Example 316, 3-(4-(2-(4-(1-(4-((5-bromo-4-((5-(dimethylphosphoryl)-2-isopropylquinolin-6-yl)amino)pyrimidin-2-yl)amino)-2-ethyl-5-methoxyphenyl)piperidin-4-yl)piperazin-1-yl)ethyl)-2,6-difluorophenyl)piperidine-2,6-dione] | 89.57 |
| 92.4 | 2.9 | 1.72 | CCc1cc(Nc2ncc(Br)c(Nc3ccc4nc(CO)ccc4c3P(C)(C)=O)n2)c(OC)cc1N1CCC(N2CCN(CCc3cc(F)c(C4CCC(=O)NC4=O)c(F)c3)CC2)CC1 (stereo not drawn) [Example 329, 3-(4-(2-(4-(1-(4-((5-bromo-4-((5-(dimethylphosphoryl)-2-(hydroxymethyl)quinolin-6-yl)amino)pyrimidin-2-yl)amino)-2-ethyl-5-methoxyphenyl)piperidin-4-yl)piperazin-1-yl)ethyl)-2,6-difluorophenyl)piperidine-2,6-dione] | 96.43 |
| 88.5 | 9.91 | 0.984 | CCc1cc(Nc2ncc(Br)c(Nc3ccc4ncc(F)cc4c3P(C)(C)=O)n2)c(OC)cc1N1CCC(N2CCN(CCc3cc(F)c(C4CCC(=O)NC4=O)c(F)c3)CC2)CC1 (stereo not drawn) [Example 336, 3-(4-(2-(4-(1-(4-((5-bromo-4-((5-(dimethylphosphoryl)-3-fluoroquinolin-6-yl)amino)pyrimidin-2-yl)amino)-2-ethyl-5-methoxyphenyl)piperidin-4-yl)piperazin-1-yl)ethyl)-2,6-difluorophenyl)piperidine-2,6-dione] | 94.98 |
| 96.1 | 1.46 | 1.23 | CCc1cc(Nc2ncc(Br)c(Nc3ccc4nc(C)ccc4c3P(C)(C)=O)n2)c(OC)cc1N1CCC(N2CCN(C(=O)C3CN(c4ccc5c(c4)C(C)(C)C(=O)N5C4CCC(=O)NC4=O)C3)CC2)CC1 (stereo not drawn) [Example 409, 3-(5-(3-(4-(1-(4-((5-bromo-4-((5-(dimethylphosphoryl)-2-methylquinolin-6-yl)amino)pyrimidin-2-yl)amino)-2-ethyl-5-methoxyphenyl)piperidin-4-yl)piperazine-1-carbonyl)azetidin-1-yl)-3,3-dimethyl-2-oxoindolin-1-yl)piperidine-2,6-dione] | 95.3 |
